Test results reported in BigSolDB 2.1.

CS(=O)(=O)c1cccc(C[C@H](NC(=O)c2c(Cl)cc3c(c2Cl)CCN(C(=O)c2ccc4ccoc4c2)C3)C(=O)O)c1
Details | solubility (mole fraction)
in PEG-400, 288.15 K | 0.0757
in PEG-400, 293.15 K | 0.0767
in PEG-400, 298.15 K | 0.0776
in PEG-400, 303.15 K | 0.0786
in PEG-400, 308.15 K | 0.0796

solubility (mole fraction)
Details | 288.15 K | 293.15 K | 298.15 K | 303.15 K | 308.15 K
in glycerin | 0.000104 | 0.000118 | 0.000133 | 0.000151 | 0.000167
in propylene glycol | 0.00102 | 0.00119 | 0.00138 | 0.00161 | 0.00183
in transcutol | 0.015 | 0.0159 | 0.0168 | 0.0178 | 0.0187
in water | 1.49e-06 | 1.85e-06 | 2.31e-06 | 2.79e-06 | 3.37e-06
